Measurements taken from the supplement of paper PMC9763283.

Columns and labels:
Experiment in all cases: area under growth-rate inhibition curve (AUC GRI) (dimensionless (GR-based AUC)); higher = less growth inhibition
Conditions in all cases: exposure time: 72 h; concentrations: 0.1, 1, 10 uM
BT474-LTR = system: BT474-LTR
How it was run: (§1)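 The area under the growth-rate inhibition curve was measured in six breast cancer cell line models, covering triple-negative lines and HER2+ lines, both parental and resistant to a two-drug combination. Cells were exposed to compound at 0.1, 1 or 10 µM for 72 h, fixed in 4% paraformaldehyde, and nuclei were stained with Hoechst 33342 or DAPI for imaging and counting. Day 0 plates, untreated Day 3 plates and DMSO controls served to correct growth across 2 biological replicates.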

SKBR3-LTR = system: SKBR3-LTR
How it was run: as §1

BT474-P = system: BT474-P
How it was run: as §1

MDA-MB-231 = system: MDA-MB-231
How it was run: as §1

MDA-MB-468 = system: MDA-MB-468
How it was run: as §1

SKBR3-P = system: SKBR3-P
How it was run: as §1

Row | SMILES | area under growth-rate inhibition curve (BT474-LTR) | area under growth-rate inhibition curve (SKBR3-LTR) | area under growth-rate inhibition curve (BT474-P) | area under growth-rate inhibition curve (MDA-MB-231) | area under growth-rate inhibition curve (MDA-MB-468) | area under growth-rate inhibition curve (SKBR3-P)
1 | CC(C)C[C@@H]1NC(=O)[C@@H](C(C)C)NC(=O)[C@@H]2CCCN2C(=O)[C@@H](CC(=O)O)NC(=O)[C@@H](Cc2c[nH]c3ccccc23)NC1=O [BQ-123] | 1.02 | 1.03 | 0.983 | 0.988 | 0.996 | 1.01
2 | CN(C)C(=O)Oc1cc(OC(=O)N(C)C)cc(C(O)CNC(C)(C)C)c1.[Cl-].[H+] (stereo unspecified) [Bambuterol HCl] | 1.09 | 1.03 | 1.06 | 1.04 | 1.03 | 1.01
3 | Cc1c(-c2ccc(O)cc2)n(Cc2ccc(OCCN3CCCCCC3)cc2)c2ccc(O)cc12.[Cl-].[H+] [Bazedoxifene HCl] | 0.949 | 0.944 | 0.755 | 0.9 | 0.898 | 0.956
4 | Cl.NC(CO)C(=O)NNCc1ccc(O)c(O)c1O (stereo unspecified) [Benserazide HCl] | 1.1 | 1.05 | 1.05 | 1.05 | 1.06 | 1.03
5 | CS(=O)(=O)[O-].C[NH+]1[C@@H]2CC[C@H]1C[C@@H](OC(c1ccccc1)c1ccccc1)C2 [Benztropine mesylate] | 1.08 | 1.01 | 1.03 | 1.03 | 0.994 | 0.986
6 | O=C(O)CCCN1CCC(OC(c2ccc(Cl)cc2)c2ccccn2)CC1.O=S(=O)(O)c1ccccc1 (stereo unspecified) [Bepotastine Besilate] | 1.09 | 1.06 | 1.03 | 1.03 | 1.03 | 0.992
7 | CC(C)NCC(O)COc1ccc(CCOCC2CC2)cc1.[Cl-].[H+] (stereo unspecified) [Betaxolol hydrochloride (Betoptic)] | 1.1 | 1.06 | 1.02 | 1.05 | 1.04 | 0.98
8 | CC(C)NCC(O)COc1ccc(CCOCC2CC2)cc1.[Cl-].[H+] (stereo unspecified) [Betaxolol] | 1.07 | 1.07 | 1.01 | 1.05 | 1.01 | 0.996
9 | CC(C[N+](C)(C)C)OC(N)=O.[Cl-] (stereo unspecified) [Bethanechol chloride] | 1.11 | 1.07 | 1.05 | 1.03 | 1.04 | 1.03
10 | Oc1c(Cl)cc(Cl)cc1Sc1cc(Cl)cc(Cl)c1O [Bithionol] | 1.06 | 1.02 | 0.999 | 1.03 | 0.985 | 1.01
11 | COc1ccccc1Oc1c(NS(=O)(=O)c2ccc(C(C)(C)C)cc2)nc(-c2ncccn2)nc1OCCO.O [Bosentan Hydrate] | 1.09 | 1.06 | 1.04 | 1.04 | 1.01 | 1.01
12 | COc1ccccc1Oc1c(NS(=O)(=O)c2ccc(C(C)(C)C)cc2)nc(-c2ncccn2)nc1OCCO [Bosentan] | 1.08 | 1.05 | 1.03 | 1.03 | 1.03 | 1.02
13 | Oc1ccc2ccc(OCCCCN3CCN(c4cccc5sccc45)CC3)cc2n1 [Brexpiprazole] | 1.05 | 1.02 | 1.04 | 1 | 0.99 | 1.03
14 | CN(C)CCC(c1ccc(Br)cc1)c1ccccn1.O=C(O)/C=C\C(=O)O (stereo unspecified) [Brompheniramine hydrogen maleate] | 1.09 | 1.04 | 1.05 | 1.03 | 1.04 | 0.998
15 | CCCC1O[C@@H]2C[C@H]3[C@@H]4CCC5=CC(=O)C=C[C@]5(C)[C@H]4[C@@H](O)C[C@]3(C)[C@]2(C(=O)CO)O1 (stereo partly specified) [Budesonide] | 0.98 | 1.03 | 0.901 | 0.971 | 1.03 | 0.912
16 | CCCCN1CCCCC1C(=O)[NH2+]c1c(C)cccc1C.[Cl-] (stereo unspecified) [Bupivacaine HCl] | 1.12 | 1.1 | 1.1 | 1.04 | 1.07 | 1.06
17 | O=C1CC2(CCCC2)CC(=O)N1CCCCN1CCN(c2ncccn2)CC1.[Cl-].[H+] [Buspirone hydrochloride] | 1.02 | 1.03 | 1.01 | 1 | 1.01 | 1.01
18 | C=CCN1CC(C(=O)N(CCCN(C)C)C(=O)NCC)CC2c3cccc4[nH]cc(c34)CC21 (stereo unspecified) [Cabergoline] | 1.05 | 1.05 | 1.01 | 1.04 | 1.05 | 1.03
19 | Cc1ccc(C2OC(CO)C(O)C(O)C2O)cc1Cc1ccc(-c2ccc(F)cc2)s1 (stereo unspecified) [Canagliflozin] | 1.07 | 1.05 | 1.02 | 1.02 | 1 | 1.03
20 | CN(C)C(=O)N[C@H]1CC[C@H](CCN2CCN(c3cccc(Cl)c3Cl)CC2)CC1 [Cariprazine] | 1.04 | 1.05 | 1.02 | 1.02 | 1.02 | 1.01
21 | CC(C)(C)NCC(O)COc1cccc2c1CCC(=O)N2.[Cl-].[H+] (stereo unspecified) [Carteolol HCl] | 1.11 | 1.1 | 1.05 | 1.04 | 1.03 | 1.04
22 | COc1ccccc1OCCNCC(O)COc1cccc2[nH]c3ccccc3c12 (stereo unspecified) [Carvedilol] | 1.03 | 1.07 | 0.957 | 1.03 | 0.937 | 1
23 | O=C(O)COCCN1CCN(C(c2ccccc2)c2ccc(Cl)cc2)CC1.[Cl-].[Cl-].[H+].[H+] (stereo unspecified) [Cetirizine DiHCl] | 1.07 | 1.03 | 1.03 | 1.02 | 1 | 0.997
24 | COc1ccc(C(Cl)=C(c2ccc(OC)cc2)c2ccc(OC)cc2)cc1 [Chlorotrianisene] | 1.08 | 1.05 | 0.983 | 1.01 | 1 | 0.987
25 | CN(C)CCC(c1ccc(Cl)cc1)c1ccccn1.O=C(O)/C=C\C(=O)O (stereo unspecified) [Chlorpheniramine Maleate] | 1.12 | 1.03 | 1.05 | 1.03 | 1.04 | 1.01
26 | C[NH+](C)CCCN1c2ccccc2Sc2ccc(Cl)cc21.[Cl-] [Chlorpromazine Hydrochloride] | 0.991 | 1.02 | 1 | 0.985 | 0.989 | 0.994
